Consider 39 molecules from PubChem BioAssay AID493105 (The Scripps Research Institute Molecular Screening Center, 2011).

The source made the active and inactive calls. How the calls were made is not given here.

Common to all, as to assay: LYPLA1 and LYPLA2 inhibitors, biochemical, gel-based ABPP, fluorescence, recombinant and endogenous enzyme (AID 493105)
The test system of one experiment is emLYPLA1. The conditions noted are these: fluorescent probe labeling, membrane fraction, at 20 µM, stronger effect = higher value.
The subject of another experiment is emLYPLA2. The conditions noted are these: fluorescent probe labeling, membrane fraction, at 20 µM, stronger effect = higher value.
A further experiment concerns rhLYPLA1. The conditions noted are these: fluorescent probe labeling, soluble fraction, at 20 µM, stronger effect = higher value.
A further experiment relates to rhLYPLA2. The conditions noted are these: fluorescent probe labeling, membrane fraction, at 20 µM, stronger effect = higher value.

For `O=C(CN1CCN(C(=O)c2ccco2)CC1)Nc1cc(C(F)(F)F)ccc1Cl`, the inhibition is 60% in the experiment on emLYPLA1, 13% (inactive) in the experiment on emLYPLA2, 78% in the experiment with rhLYPLA1 and 0% (inactive) with rhLYPLA2.
In the same order, the values of `O=C(CN1CCN(c2ccccn2)CC1)Nc1cc(C(F)(F)F)ccc1Cl` are 0% (inactive), 9% (inactive), 36% and 6% (inactive).
In the same order, the values of `O=C(COc1ccc(Br)cc1)N1CCN(c2ccc([N+](=O)[O-])c(N3CCCCC3)c2)CC1` are 0% (inactive), 3% (inactive), 45% and 7% (inactive).
In the same order, the values of `Cc1ccc(CN2CCN(/N=C/C=C/c3ccccc3[N+](=O)[O-])CC2)cc1` are 0% (inactive), 26% (inactive), 27% (inactive) and 10% (inactive).
Regarding `CC1CC(C)CN(S(=O)(=O)c2ccc3c(c2)CC(C)N3C(=O)C2CCC2)C1` (stereo unspecified), the inhibition with emLYPLA1 is 0% (inactive); in the experiment on emLYPLA2 it was 0% (inactive); in the experiment on rhLYPLA1, 9% (inactive); in the experiment with rhLYPLA2 it was 0% (inactive).
Turning to `CC1CN(Cc2cc(=O)oc3cc(O)c(Cl)cc23)CC(C)O1` (stereo unspecified), the inhibition was 0% (inactive) with emLYPLA1, 0% (inactive) with emLYPLA2, 0% (inactive) in the experiment on rhLYPLA1 and 3% (inactive) with rhLYPLA2.
Turning to `CCOc1cc(CN2CCCC(C(=O)c3cccc(C(F)(F)F)c3)C2)ccc1O` (stereo unspecified), the inhibition in the experiment with emLYPLA1 was 0% (inactive); with emLYPLA2, 0% (inactive); in the experiment with rhLYPLA1, 2% (inactive); with rhLYPLA2, 0% (inactive).
As for `O=C(COc1ccc(Cl)cc1)N1CCN(C/C=C/c2ccccc2)CC1`, the values for the inhibition in the experiment on emLYPLA2, in the experiment with rhLYPLA1 and with rhLYPLA2 were 25% (inactive), 0% (inactive) and 12% (inactive), respectively.
Taken in the same sequence, the figures for `O=c1[nH]c(CN2CCN(C/C=C/c3ccccc3)CC2)nc2cc(Cl)ccc12` were 2% (inactive), 3% (inactive) and 0% (inactive).
Regarding `COc1cccc(N=C2NC(=O)/C(=C/c3cc([N+](=O)[O-])ccc3O)S2)c1`, the inhibition in the experiment on emLYPLA1 is 20% (inactive); in the experiment on emLYPLA2 it was 6% (inactive); in the experiment with rhLYPLA1 it was 0% (inactive); in the experiment with rhLYPLA2, 0% (inactive).
As to `O=C(/C=C/c1ccccc1)N1CCN(CCN2C(=O)c3cccc4cccc(c34)C2=O)CC1`, the inhibition is 34% in the experiment with emLYPLA2, 15% (inactive) in the experiment on rhLYPLA1 and 18% (inactive) with rhLYPLA2.
In the case of `COc1ccc(C(=O)NC(=S)Nc2ccc(N3CCOCC3)c(Cl)c2)cc1[N+](=O)[O-]`, the results for the inhibition in the experiment with emLYPLA2, in the experiment with rhLYPLA1 and in the experiment on rhLYPLA2 were 1% (inactive), 7% (inactive) and 5% (inactive), respectively.
As to `CC(NC(=O)c1ccco1)C(=O)N1CCN(c2cccc(C(F)(F)F)c2)CC1` (stereo unspecified), the inhibition was 0% (inactive) in the experiment with emLYPLA1, 12% (inactive) in the experiment on emLYPLA2, 20% (inactive) in the experiment on rhLYPLA1 and 5% (inactive) in the experiment on rhLYPLA2.
With `NS(=O)(=O)c1ccc(CCNC(=O)c2cc([N+](=O)[O-])ccc2N2CCCCC2)cc1`, the inhibition was 0% (inactive) in the experiment on emLYPLA1, 0% (inactive) with emLYPLA2, 49% with rhLYPLA1 and 0% (inactive) in the experiment with rhLYPLA2.
Turning to `Cc1ccc(OCC(=O)N2CCN(c3ccc([N+](=O)[O-])c(N4CCOCC4)c3)CC2)cc1`, the inhibition was 0% (inactive) in the experiment with emLYPLA1, 0% (inactive) in the experiment with emLYPLA2, 10% (inactive) in the experiment with rhLYPLA1 and 0% (inactive) in the experiment with rhLYPLA2.
Turning to `COc1ccc(-n2nc(C(=O)NCC(=O)N3CCN(c4cccc(Cl)c4)CC3)c3ccccc3c2=O)c(OC)c1`, the inhibition in the experiment on emLYPLA1 is 16% (inactive); in the experiment with emLYPLA2, 83%; in the experiment on rhLYPLA1, 0% (inactive); in the experiment with rhLYPLA2 it was 61%.
In the same order, the values of `COc1cc(/C=N/N2CCN(Cc3ccc(Cl)cc3)CC2)cc(Br)c1O` are 0% (inactive), 0% (inactive), 31% and 0% (inactive).
In the same order, the values of `CCC(=O)N1CCN(c2ccc(NC(=S)NC(=O)c3cccc([N+](=O)[O-])c3)cc2)CC1` are 8% (inactive), 6% (inactive), 0% (inactive) and 5% (inactive).
As to `COc1ccccc1-c1csc(-n2ncc(C#N)c2N)n1`, the inhibition in the experiment with emLYPLA2 is 6% (inactive); in the experiment with rhLYPLA1 it was 0% (inactive); in the experiment on rhLYPLA2, 4% (inactive).
With `CC(=O)N1CCN(c2ccc(NC(=S)NC(=O)c3ccc(C)c([N+](=O)[O-])c3)cc2)CC1`, the inhibition is 0% (inactive) with emLYPLA1, 14% (inactive) in the experiment on emLYPLA2, 17% (inactive) with rhLYPLA1 and 5% (inactive) with rhLYPLA2.
For the molecule `COc1ccccc1-n1cc(C(=O)NCC(=O)N2CCN(Cc3ccccc3)CC2)c2ccccc2c1=O`, the inhibition in the experiment with emLYPLA1 is 1% (inactive); with emLYPLA2 it was 52%; in the experiment on rhLYPLA1, 0% (inactive); with rhLYPLA2, 39%.
In the same order, the values of `OC(COc1ccc(Cl)cc1)CN1CCN(c2cccc(Cl)c2)CC1` (stereo unspecified) are 0% (inactive), 0% (inactive), 0% (inactive) and 0% (inactive).
For the molecule `Cc1ccc(N2CCN(C3=NC(=O)/C(=C\c4cccs4)S3)CC2)cc1`, the inhibition in the experiment with emLYPLA2 was 0% (inactive); in the experiment with rhLYPLA1 it was 0% (inactive); in the experiment on rhLYPLA2 it was 5% (inactive).
On to `CC(=O)c1ccc(N2CCN(C(=O)c3cccc(Oc4ccccc4)c3)CC2)cc1`, for which the inhibition in the experiment with emLYPLA1 was 0% (inactive); with emLYPLA2 it was 0% (inactive); in the experiment with rhLYPLA1 it was 29% (inactive); in the experiment with rhLYPLA2, 12% (inactive).
On to `CCC(=C/c1sc2ccc3ccccc3c2[n+]1C)/C=C1\Sc2ccc3ccccc3c2N1C`, for which the inhibition with emLYPLA1 was 1% (inactive); in the experiment on emLYPLA2, 7% (inactive); in the experiment with rhLYPLA1, 0% (inactive); with rhLYPLA2, 2% (inactive).
For the molecule `COc1ccc(S(=O)(=O)Nc2ccc(Cc3ccncc3)cc2)cc1C`, the inhibition with emLYPLA2 was 0% (inactive); in the experiment with rhLYPLA1, 12% (inactive); in the experiment with rhLYPLA2, 0% (inactive).
On to `Cc1cc(OCc2cc(C(=O)N3CCC(Oc4cccnc4)CC3)no2)cc(C)c1Cl`, for which the figures for the inhibition with emLYPLA2, in the experiment with rhLYPLA1 and in the experiment with rhLYPLA2 were 5% (inactive), 0% (inactive) and 3% (inactive), respectively.
In the same order, the values of `CCOc1ccc(NC(=S)NC(=O)c2c(Br)cnn2C)c([N+](=O)[O-])c1` are 16% (inactive), 17% (inactive) and 5% (inactive).
In the same order, the values of `COc1ccc(N2CCN(C(=O)CCCCCn3c(=O)[nH]c4ccsc4c3=O)CC2)cc1` are 6% (inactive), 0% (inactive) and 6% (inactive).
Taken in the same sequence, the figures for `O=C(COc1ccc(Cl)cc1)N1CCN(c2ccc([N+](=O)[O-])c(N3CCCCC3)c2)CC1` were 10% (inactive), 36% and 5% (inactive).
As for `O=C(c1ccc(S(=O)(=O)N2CCCCC2)cc1)N1CCN(CCN2C(=O)c3cccc4cccc(c34)C2=O)CC1`, the inhibition is 27% (inactive) in the experiment with emLYPLA2, 11% (inactive) with rhLYPLA1 and 20% (inactive) in the experiment with rhLYPLA2.
Taken in the same sequence, the figures for `O=C(NC(=S)Nc1sc2c(c1C(=O)O)CCCC2)c1ccccc1` were 52%, 2% (inactive) and 34%.
In the same order, the values of `Nc1nc(NCc2ccco2)nc(N2CCN(Cc3ccccc3)CC2)c1[N+](=O)[O-]` are 1% (inactive), 2% (inactive) and 5% (inactive).
Taken in the same sequence, the figures for `O=C(c1ccc(-c2ccccc2)c(F)c1)C1CCCN(C(=O)c2cncs2)C1` (stereo unspecified) were 12% (inactive), 0% (inactive) and 6% (inactive).
`O=C(c1cc(COc2cccc(C(F)(F)F)c2)on1)N1CCC(Oc2cccnc2)CC1`: the inhibition in the experiment on emLYPLA2, in the experiment on rhLYPLA1 and in the experiment on rhLYPLA2 was 0% (inactive) in each case.
Take `O=C(/C=C/c1ccc(Br)cc1)N1CCN(c2cccc(C(F)(F)F)c2)CC1`: the figures for the inhibition in the experiment with emLYPLA2, with rhLYPLA1 and in the experiment on rhLYPLA2 were 16% (inactive), 16% (inactive) and 15% (inactive), respectively.
In the case of `COc1cc([C@H]2Oc3cc([C@H]4Oc5cc(O)cc(O)c5C(=O)[C@@H]4O)ccc3O[C@@H]2CO)ccc1O`, the inhibition is 42% in the experiment on emLYPLA2, 13% (inactive) in the experiment on rhLYPLA1 and 28% (inactive) in the experiment on rhLYPLA2.
Taken in the same sequence, the figures for `CSc1ccccc1OCc1cc(C(=O)N2CCC(Oc3cccnc3)CC2)no1` were 16% (inactive), 0% (inactive) and 6% (inactive).
Taken in the same sequence, the figures for `COc1ccc(-n2nc(C(=O)NCC(=O)N3CCN(Cc4ccccc4)CC3)c3ccccc3c2=O)cc1` were 43%, 17% (inactive) and 17% (inactive).

The term inhibition denotes the share of the control response that was lost under treatment.
